Experimental data as given in ChEMBL document CHEMBL1201862, “PubChem BioAssay data set” (2004).
The source made the active and inactive calls.

Legend:
[1] = off-target signal loss in HeLa-CEM21 co-culture – HeLa F-luc CTL cells, cherry-picked, counter-screen for HIV-1 Env fusion inhibitor project, dose response (AID 652040); type: functional, cell-based;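 further: potency for signal decrease marking cytotoxic or nonspecific inhibition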
Phospholipase A2 = Phospholipase A2 (Homo sapiens, UniProt P04054); type: functional;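 further: confirmatory dose-response counterscreen on phospholipase A2, testing hits that came from an ultra-high-throughput screen for ATG4B inhibitors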
Phospholipase A2, sequence (P04054 whole entry, the tested form may be a part): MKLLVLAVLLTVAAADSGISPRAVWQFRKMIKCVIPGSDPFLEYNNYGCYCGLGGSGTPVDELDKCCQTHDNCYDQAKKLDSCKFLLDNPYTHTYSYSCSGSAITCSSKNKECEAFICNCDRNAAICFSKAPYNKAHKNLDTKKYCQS

[2] = inhibitors of HIV Env-driven cell fusion, dose response, cherry-pick (AID 652057); type: functional, cell-based
Perilipin-1/ABHD5 = Perilipin-1/ABHD5 (Homo sapiens, UniProt O60240+Q8WTS1); assay: Luminescence-based biochemical high throughput dose response assay for inhibitors of the interaction of the lipase co-activator protein, abhydrolase domain containing 5 (ABHD5) with perilipin-1 (PLIN1) (2K validation set). [Related pubchem assays (depositor defined):AID493027, AID493057]
Perilipin-1/ABHD5, sequence (Q8WTS1 whole entry, the tested form may be a part): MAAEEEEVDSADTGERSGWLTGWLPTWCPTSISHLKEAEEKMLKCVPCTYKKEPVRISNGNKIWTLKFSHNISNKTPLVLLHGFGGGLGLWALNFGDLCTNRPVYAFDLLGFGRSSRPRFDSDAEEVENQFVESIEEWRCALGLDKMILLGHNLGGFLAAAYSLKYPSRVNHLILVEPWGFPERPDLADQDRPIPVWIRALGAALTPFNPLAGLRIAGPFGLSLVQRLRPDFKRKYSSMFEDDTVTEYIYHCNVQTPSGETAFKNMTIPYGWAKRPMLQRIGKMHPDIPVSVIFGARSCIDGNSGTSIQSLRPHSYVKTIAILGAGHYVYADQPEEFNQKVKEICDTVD
Perilipin-1/ABHD5, sequence (O60240 whole entry, the tested form may be a part): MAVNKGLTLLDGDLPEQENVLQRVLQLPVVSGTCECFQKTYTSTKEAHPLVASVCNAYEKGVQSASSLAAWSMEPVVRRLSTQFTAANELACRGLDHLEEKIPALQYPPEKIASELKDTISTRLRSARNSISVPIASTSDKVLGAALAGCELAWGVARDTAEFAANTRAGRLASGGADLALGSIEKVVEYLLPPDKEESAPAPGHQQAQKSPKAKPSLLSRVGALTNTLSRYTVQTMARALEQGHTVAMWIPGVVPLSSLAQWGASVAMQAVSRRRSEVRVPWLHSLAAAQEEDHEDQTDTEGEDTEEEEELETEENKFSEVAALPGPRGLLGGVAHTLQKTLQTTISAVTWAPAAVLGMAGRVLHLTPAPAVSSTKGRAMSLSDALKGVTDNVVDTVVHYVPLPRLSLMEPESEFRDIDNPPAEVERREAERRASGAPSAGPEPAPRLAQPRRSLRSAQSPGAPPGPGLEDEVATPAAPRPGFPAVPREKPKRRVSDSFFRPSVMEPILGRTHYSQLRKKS

[3] = microbe, parasite or virus in culture; type: functional; settings: Mycobacterium tuberculosis
[4] = biological target: Protein-arginine deiminase type-4 (Homo sapiens, UniProt Q9UM07); assay: human PAD4 inhibitor potency, dose response, biochemical, fluorescence readout (AID 492970)
Protein-arginine deiminase type-4, sequence (Q9UM07 whole entry): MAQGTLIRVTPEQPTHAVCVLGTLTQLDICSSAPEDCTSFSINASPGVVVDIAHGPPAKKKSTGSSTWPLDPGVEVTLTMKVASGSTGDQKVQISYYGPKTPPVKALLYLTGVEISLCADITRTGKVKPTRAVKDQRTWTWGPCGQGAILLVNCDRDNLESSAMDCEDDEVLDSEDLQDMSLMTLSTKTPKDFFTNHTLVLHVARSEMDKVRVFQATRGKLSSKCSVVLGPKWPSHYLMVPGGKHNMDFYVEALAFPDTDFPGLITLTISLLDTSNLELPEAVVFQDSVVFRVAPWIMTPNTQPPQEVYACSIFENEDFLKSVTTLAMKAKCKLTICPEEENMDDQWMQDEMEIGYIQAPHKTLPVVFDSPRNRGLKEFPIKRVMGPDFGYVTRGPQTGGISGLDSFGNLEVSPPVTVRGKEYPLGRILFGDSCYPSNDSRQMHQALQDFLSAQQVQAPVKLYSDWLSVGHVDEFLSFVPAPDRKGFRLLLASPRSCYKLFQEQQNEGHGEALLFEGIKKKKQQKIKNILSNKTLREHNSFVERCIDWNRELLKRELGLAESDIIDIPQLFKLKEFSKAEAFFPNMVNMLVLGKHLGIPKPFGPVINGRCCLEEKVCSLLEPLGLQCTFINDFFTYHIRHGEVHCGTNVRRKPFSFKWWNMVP

Keap1/Nrf2 = Keap1/Nrf2 (Homo sapiens, UniProt Q14145); assay: Keap1-Nrf2 protein-protein interaction inhibitors, dose response, biochemical, fluorescence polarization, cherry-picked samples (AID 588683)
Keap1/Nrf2, sequence (Q16236 whole entry): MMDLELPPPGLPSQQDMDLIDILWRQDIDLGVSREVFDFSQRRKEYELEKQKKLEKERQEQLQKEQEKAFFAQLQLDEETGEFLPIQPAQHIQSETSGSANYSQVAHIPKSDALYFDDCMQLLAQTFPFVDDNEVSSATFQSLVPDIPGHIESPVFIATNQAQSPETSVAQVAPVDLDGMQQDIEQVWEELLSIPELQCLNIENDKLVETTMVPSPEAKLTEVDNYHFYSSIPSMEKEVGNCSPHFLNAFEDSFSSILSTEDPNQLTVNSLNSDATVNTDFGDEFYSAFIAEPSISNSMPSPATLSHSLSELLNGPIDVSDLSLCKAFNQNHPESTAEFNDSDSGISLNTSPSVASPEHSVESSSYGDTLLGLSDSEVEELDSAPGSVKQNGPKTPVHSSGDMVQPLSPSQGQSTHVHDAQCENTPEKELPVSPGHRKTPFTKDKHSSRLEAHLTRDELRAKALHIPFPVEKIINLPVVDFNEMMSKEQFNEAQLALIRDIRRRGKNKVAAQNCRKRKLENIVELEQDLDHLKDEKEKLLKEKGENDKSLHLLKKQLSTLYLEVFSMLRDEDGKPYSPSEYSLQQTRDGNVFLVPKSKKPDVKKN
Keap1/Nrf2, sequence (Q14145 whole entry): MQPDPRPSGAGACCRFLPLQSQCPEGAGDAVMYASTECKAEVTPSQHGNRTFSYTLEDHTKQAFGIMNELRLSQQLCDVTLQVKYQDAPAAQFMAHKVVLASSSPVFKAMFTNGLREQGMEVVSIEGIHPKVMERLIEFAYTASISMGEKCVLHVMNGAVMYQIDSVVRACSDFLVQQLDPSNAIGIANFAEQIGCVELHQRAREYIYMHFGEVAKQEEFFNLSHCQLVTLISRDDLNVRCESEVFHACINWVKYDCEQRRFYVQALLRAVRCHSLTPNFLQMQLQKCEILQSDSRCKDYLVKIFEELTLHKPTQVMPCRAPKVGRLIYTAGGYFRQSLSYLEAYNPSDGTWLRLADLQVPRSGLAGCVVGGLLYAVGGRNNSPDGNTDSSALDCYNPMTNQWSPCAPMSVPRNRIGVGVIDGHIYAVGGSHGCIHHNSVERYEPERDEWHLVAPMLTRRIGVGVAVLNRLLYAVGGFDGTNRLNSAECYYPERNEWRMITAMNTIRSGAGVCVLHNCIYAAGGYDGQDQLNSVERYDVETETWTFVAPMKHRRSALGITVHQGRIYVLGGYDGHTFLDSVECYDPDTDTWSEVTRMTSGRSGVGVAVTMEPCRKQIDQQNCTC

[5] = HepG2 cell cytotoxicity, dose response, cytotoxicity control for Shn3 inhibitor project, CellTiter-Glo, cherry-picked (AID 624134); type: functional, cell-based
[6] = biological target: Delta-type opioid receptor (Homo sapiens, UniProt P41143); assay: HTS Image-Based Screen for Agonists of the DOR Receptor. [Related pubchem assays (depositor defined):AID1777, AID1786, AID2133]; type: functional
Delta-type opioid receptor, sequence (P41143 whole entry): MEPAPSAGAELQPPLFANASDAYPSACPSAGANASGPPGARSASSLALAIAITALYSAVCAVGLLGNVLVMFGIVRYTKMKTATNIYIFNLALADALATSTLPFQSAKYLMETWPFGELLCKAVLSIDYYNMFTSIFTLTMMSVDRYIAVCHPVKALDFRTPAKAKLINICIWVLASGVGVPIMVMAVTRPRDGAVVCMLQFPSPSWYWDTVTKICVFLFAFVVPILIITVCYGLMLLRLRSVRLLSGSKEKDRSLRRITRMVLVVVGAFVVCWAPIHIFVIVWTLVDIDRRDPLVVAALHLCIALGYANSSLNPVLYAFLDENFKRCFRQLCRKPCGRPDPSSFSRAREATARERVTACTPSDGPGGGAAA

SUMO-activating enzyme = SUMO-activating enzyme (Homo sapiens, UniProt Q9UBT2); assay: SUMOylation inhibitor hit validation, confirmation, SUMOylation inhibitor project, biochemical, AlphaScreen (AID 2018); type: functional
SUMO-activating enzyme, sequence (Q9UBE0 whole entry, the tested form may be a part): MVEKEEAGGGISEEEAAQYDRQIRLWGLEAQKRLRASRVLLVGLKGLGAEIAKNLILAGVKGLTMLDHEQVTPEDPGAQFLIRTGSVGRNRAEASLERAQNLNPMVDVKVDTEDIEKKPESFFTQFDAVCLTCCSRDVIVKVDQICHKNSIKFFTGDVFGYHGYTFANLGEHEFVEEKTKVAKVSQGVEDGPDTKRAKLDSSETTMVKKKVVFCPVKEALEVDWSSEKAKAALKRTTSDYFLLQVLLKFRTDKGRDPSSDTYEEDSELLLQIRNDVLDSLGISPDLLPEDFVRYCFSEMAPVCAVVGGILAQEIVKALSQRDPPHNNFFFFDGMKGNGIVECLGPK
SUMO-activating enzyme, sequence (Q9UBT2 whole entry, the tested form may be a part): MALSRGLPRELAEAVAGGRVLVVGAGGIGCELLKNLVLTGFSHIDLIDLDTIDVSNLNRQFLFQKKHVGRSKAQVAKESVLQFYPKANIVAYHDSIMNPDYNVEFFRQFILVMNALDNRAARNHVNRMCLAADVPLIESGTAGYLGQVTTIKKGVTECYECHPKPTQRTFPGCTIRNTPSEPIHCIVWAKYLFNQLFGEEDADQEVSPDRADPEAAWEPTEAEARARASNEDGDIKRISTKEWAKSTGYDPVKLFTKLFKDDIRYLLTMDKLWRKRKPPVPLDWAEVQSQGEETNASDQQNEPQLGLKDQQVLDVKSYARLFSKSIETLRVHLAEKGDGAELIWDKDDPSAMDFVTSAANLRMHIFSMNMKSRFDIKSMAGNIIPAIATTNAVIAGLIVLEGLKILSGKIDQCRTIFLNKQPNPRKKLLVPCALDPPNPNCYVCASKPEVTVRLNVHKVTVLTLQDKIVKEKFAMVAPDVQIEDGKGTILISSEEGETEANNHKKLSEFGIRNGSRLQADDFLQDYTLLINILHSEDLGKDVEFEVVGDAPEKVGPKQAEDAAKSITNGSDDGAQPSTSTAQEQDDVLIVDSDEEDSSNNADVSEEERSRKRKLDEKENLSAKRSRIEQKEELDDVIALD

[7] = biological target: T1, RNA-binding protein pos-1 (Caenorhabditis elegans, UniProt G5EF15); assay: inhibitors of POS-1/mex-3 RNA binding, dose response, biochemical, fluorescence polarization (AID 1964);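 further: purified POS-1 fused to maltose binding protein made in E. coli; potency of compounds blocking POS-1 binding to fluorescent RNA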
T1 sequence (G5EF15 whole entry): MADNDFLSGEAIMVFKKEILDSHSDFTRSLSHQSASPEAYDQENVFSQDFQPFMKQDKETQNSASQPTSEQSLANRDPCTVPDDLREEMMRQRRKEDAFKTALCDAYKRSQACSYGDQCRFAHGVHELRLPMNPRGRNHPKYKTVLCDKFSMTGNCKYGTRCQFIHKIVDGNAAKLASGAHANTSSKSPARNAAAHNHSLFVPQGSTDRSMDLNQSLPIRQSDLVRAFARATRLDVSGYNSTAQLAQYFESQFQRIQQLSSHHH

[8] = Luminescence Cell-Based Dose Response HTS to Identify Inhibitors of 5'UTR Stem-Loop Driven Prion Protein mRNA Translation in H4 Neuroglioblastoma Cells. [Related pubchem assays: 1827 (Project Summary), 1813 (Primary HTS)]; type: functional
[9] = biological target: T2, Apoptotic protease-activating factor 1 (Homo sapiens, UniProt O14727); assay: SAR analysis of small molecule inhibitors of Apaf-1 in a Fluorescent assay.; type: functional; settings: read-out: IC50_Mean
T2 sequence (O14727 whole entry): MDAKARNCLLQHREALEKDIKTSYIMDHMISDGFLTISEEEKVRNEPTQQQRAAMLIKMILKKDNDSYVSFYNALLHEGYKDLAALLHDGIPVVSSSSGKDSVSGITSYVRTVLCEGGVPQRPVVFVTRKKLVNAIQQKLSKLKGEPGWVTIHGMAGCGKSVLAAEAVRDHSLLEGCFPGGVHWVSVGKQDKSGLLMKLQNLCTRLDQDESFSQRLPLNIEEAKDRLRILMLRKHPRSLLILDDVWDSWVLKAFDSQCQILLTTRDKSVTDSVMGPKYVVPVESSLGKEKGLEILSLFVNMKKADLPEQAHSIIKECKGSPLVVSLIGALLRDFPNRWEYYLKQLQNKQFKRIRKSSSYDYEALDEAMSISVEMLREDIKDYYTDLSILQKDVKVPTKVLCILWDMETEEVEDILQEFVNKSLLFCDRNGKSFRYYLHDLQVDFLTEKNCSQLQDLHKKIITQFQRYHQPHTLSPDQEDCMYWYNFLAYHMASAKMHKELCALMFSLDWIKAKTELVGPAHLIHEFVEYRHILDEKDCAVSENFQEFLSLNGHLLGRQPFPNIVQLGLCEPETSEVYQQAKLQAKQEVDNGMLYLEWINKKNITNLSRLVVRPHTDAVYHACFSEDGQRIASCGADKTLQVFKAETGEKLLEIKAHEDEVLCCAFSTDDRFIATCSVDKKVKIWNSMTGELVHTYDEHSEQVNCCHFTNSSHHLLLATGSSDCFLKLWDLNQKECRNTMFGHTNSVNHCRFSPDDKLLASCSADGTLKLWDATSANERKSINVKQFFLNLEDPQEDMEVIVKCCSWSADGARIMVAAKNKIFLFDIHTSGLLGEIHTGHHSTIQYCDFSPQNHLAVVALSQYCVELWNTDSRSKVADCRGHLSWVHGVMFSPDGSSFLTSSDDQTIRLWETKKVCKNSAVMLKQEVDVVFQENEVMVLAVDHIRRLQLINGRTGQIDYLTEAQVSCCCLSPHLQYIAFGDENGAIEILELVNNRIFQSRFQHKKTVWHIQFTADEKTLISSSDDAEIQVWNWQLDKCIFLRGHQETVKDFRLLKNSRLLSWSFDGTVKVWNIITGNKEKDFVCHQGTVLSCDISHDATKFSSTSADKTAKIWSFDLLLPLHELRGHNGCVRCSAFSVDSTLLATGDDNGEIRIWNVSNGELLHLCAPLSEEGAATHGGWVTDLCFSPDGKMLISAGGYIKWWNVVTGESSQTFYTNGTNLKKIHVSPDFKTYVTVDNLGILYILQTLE

[10] = inhibitors of SNCA 5'UTR-driven reporter translation, confirmation, H4 neuroglioma cells, luminescence (AID 1988); type: functional, cell-based
Streptokinase A = biological target: T3, Streptokinase A (Streptococcus pyogenes serotype M1, UniProt P10520); assay: S. pyogenes streptokinase expression inhibitors, potency, dose response, plasminogen activation absorbance, OD405 (AID 1914); type: functional, Streptococcus pyogenes M1 GAS;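 further: secreted streptokinase activity via plasminogen activation per viability signal from cell pellet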
T3 sequence (P10520 whole entry): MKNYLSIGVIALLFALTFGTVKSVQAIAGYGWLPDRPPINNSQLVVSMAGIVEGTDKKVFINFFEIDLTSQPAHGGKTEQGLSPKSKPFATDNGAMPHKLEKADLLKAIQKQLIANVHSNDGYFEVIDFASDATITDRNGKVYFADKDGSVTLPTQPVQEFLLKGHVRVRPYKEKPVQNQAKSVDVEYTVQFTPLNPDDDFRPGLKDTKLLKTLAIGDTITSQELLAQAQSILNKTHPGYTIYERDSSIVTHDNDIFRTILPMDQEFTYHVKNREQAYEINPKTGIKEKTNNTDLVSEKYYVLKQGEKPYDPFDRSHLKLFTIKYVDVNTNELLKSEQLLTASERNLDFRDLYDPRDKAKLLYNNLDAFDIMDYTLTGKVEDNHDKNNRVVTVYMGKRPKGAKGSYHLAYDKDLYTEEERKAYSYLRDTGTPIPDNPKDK

With `O=C1C(=O)c2ccccc2-c2ccccc21` [9,10-PHENANTHRENEQUINONE] the AC50 [1] was 3.04 µM (active), the IC50 (Phospholipase A2) was 42.8 µM (inactive) and the AC50 [2] was 4.53 µM (active). For the same molecule, the IC50 (Perilipin-1/ABHD5) was 12.3 µM (inactive), the CC50 [3] was 2.33 µM (active) and the IC50 [4] was 16 µM (inactive).

With `COCCCNC(=O)c1ccc2c3c(onc13)-c1ccccc1C2=O` the AC50 (Keap1/Nrf2) was 1.73 µM (active).

For `CCC(=O)OCCNc1cc(Sc2nccn2C)c2nonc2c1[N+](=O)[O-]`, the AC50 [5] was 16.1 µM (active) and the EC50 [6] was > 32 µM (inactive).

With `CCCCn1c(NC(=O)c2ccccc2Cl)c(C#N)c2nc3ccccc3nc21` the IC50 (SUMO-activating enzyme) was 0.89 µM (active).

With `O=C1c2cc(F)ccc2-n2c1nc1ccccc1c2=O` the EC50 [7] was > 300 µM (not active), the EC50 [8] was > 120 µM (not active) and the IC50 [9] was 67.7 µM (active). The EC50 [10] was 8.84 µM (active).

In the case of `CCOC(=O)C1=C(c2ccc(OC)cc2)C(=O)c2ccccc2C1=O`, the EC50 (Streptokinase A) is reported as > 150 µM (not active).
